Measurements as given in ChEMBL document CHEMBL4680293, “Tubulin inhibitory activity of a novel colchicine-binding compounds based on a dinaphthospiropyranran scaffold” (Bioorg Med Chem, 2021).
Calls of active or inactive are those of the source. The calls are words filed in the database; no cut-off is given here.

Legend:
HL-60(TB) = assay: Anti-cancer activity against human HL-60(TB) cells assessed as cell growth inhibition measured after 48 hrs by SRB method; assay type: functional, cell-based
K562 = assay: Anti-cancer activity against human K562 cells assessed as cell growth inhibition measured after 48 hrs by SRB method; assay type: functional, cell-based
MOLT-4 = assay: Anti-cancer activity against human MOLT-4 cells assessed as cell growth inhibition measured after 48 hrs by SRB method; assay type: functional, cell-based
SR = assay: Anti-cancer activity against human SR cells assessed as cell growth inhibition measured after 48 hrs by SRB method; assay type: functional, cell-based
HCT-15 = assay: Anti-cancer activity against human HCT-15 cells assessed as cell growth inhibition measured after 48 hrs by SRB method; assay type: functional, cell-based
SNB-19 = assay: Anti-cancer activity against human SNB-19 cells assessed as cell growth inhibition measured after 48 hrs by SRB method; assay type: functional, cell-based
U-251 = assay: Anti-cancer activity against human U251 cells assessed as cell growth inhibition measured after 48 hrs by SRB method; assay type: functional, cell-based
M14 = assay: Anti-cancer activity against human M14 cells assessed as cell growth inhibition measured after 48 hrs by SRB method; assay type: functional, cell-based
SK-MEL-5 = assay: Anti-cancer activity against human SK-MEL-5 cells assessed as cell growth inhibition measured after 48 hrs by SRB method; assay type: functional, cell-based
UACC-257 = assay: Anti-cancer activity against human UACC-257 cells assessed as cell growth inhibition measured after 48 hrs by SRB method; assay type: functional, cell-based
UACC-62 = assay: Anti-cancer activity against human UACC-62 cells assessed as cell growth inhibition measured after 48 hrs by SRB method; assay type: functional, cell-based
OVCAR-3 = assay: Anti-cancer activity against human OVCAR-3 cells assessed as cell growth inhibition measured after 48 hrs by SRB method; assay type: functional, cell-based
NCI/ADR-RES = assay: Anti-cancer activity against human NCI/ADR-RES cells assessed as cell growth inhibition measured after 48 hrs by SRB method; assay type: functional, cell-based
SK-OV-3 = assay: Anti-cancer activity against human SK-OV-3 cells assessed as cell growth inhibition measured after 48 hrs by SRB method; assay type: functional, cell-based
HOP-62 = assay: Anti-cancer activity against human HOP-62 cells assessed as cell growth inhibition measured after 48 hrs by SRB method; assay type: functional, cell-based
NCI-H460 = assay: Anti-cancer activity against human NCI-H460 cells assessed as cell growth inhibition measured after 48 hrs by SRB method; assay type: functional, cell-based
786-0 = assay: Anti-cancer activity against human 786-0 cells assessed as cell growth inhibition measured after 48 hrs by SRB method; assay type: functional, cell-based
CAKI-1 = assay: Anti-cancer activity against human CAKI-1 cells assessed as cell growth inhibition measured after 48 hrs by SRB method; assay type: functional, cell-based
RXF 393 = assay: Anti-cancer activity against human RXF 393 cells assessed as cell growth inhibition measured after 48 hrs by SRB method; assay type: functional, cell-based
SN12C = assay: Anti-cancer activity against human SN12C cells assessed as cell growth inhibition measured after 48 hrs by SRB method; assay type: functional, cell-based
PC-3 = assay: Anti-cancer activity against human PC-3 cells assessed as cell growth inhibition measured after 48 hrs by SRB method; assay type: functional, cell-based
DU-145 = assay: Anti-cancer activity against human DU-145 cells assessed as cell growth inhibition measured after 48 hrs by SRB method; assay type: functional, cell-based
[1] = Anti-cancer activity against human colon cancer cells assessed as cell growth inhibition measured after 48 hrs by SRB method; assay type: functional; conditions: Colon cancer cell line
Tubulin (Homo sapiens) = Tubulin (Homo sapiens) (UniProt P68371+Q9H4B7+P0DPH7+P68366+Q13509+Q71U36+P04350+Q3ZCM7+P07437+P68363+Q9BQE3+Q6PEY2+Q13885+Q9BVA1+Q9BUF5); assay: Inhibition of tubulin (unknown origin) assessed as inhibition of tubulin polymerization at 10 uM measured for 50 mins by fluorescence based analysis; assay type: protein-complex assay
[2] = Anti-cancer activity against human central nervous system cells assessed as cell growth inhibition measured after 48 hrs by SRB method; assay type: functional; conditions: CNS cell
[3] = Anti-cancer activity against human breast cancer cells assessed as cell growth inhibition measured after 48 hrs by SRB method; assay type: functional; conditions: Breast cancer cell line
[4] = Anti-cancer activity against human prostate cancer cells assessed as cell growth inhibition measured after 48 hrs by SRB method; assay type: functional; conditions: Prostate tumor cell line
[5] = time 48 hrs, read-out: LC50 (the source's name)

## C1=C2CNCC3=Cc4c(ccc5ccccc45)OC23Oc2ccc3ccccc3c21
HL-60(TB); HL-60, 48 h
  IC50: 5.32 µM
HL-60(TB); HL-60, time 48 hrs
  GI50: 5.57 µM
  TGI: 5.11 µM
HL-60(TB); HL-60, time 48 hrs, read-out: LC50 (the source's name)
  CC50: 4.07 µM
K562; K562, 48 h
  IC50: 3.55 µM
K562; K562, time 48 hrs
  GI50: 2.95 µM
  TGI: 21.4 µM
K562; K562, time 48 hrs, read-out: LC50 (the source's name)
  CC50: 4 µM
MOLT-4; MOLT-4, 48 h
  IC50: 5.13 µM
MOLT-4; MOLT-4, time 48 hrs
  GI50: 2.88 µM
  LC50: 4 µM
  TGI: 10.5 µM
SR; 48 h
  IC50: 3.8 µM
SR; time 48 hrs
  GI50: 2.19 µM
  LC50: 4 µM
  TGI: 5.37 µM
HCT-15; HCT-15, 48 h
  IC50: 5.5 µM
HCT-15; HCT-15, time 48 hrs
  GI50: 3.89 µM
  LC50: 4 µM
  TGI: 22.4 µM
SNB-19; SNB-19, 48 h
  IC50: 15.8 µM
SNB-19; SNB-19, time 48 hrs
  GI50: 6.92 µM
  LC50: 4 µM
  TGI: 29.5 µM
U-251; U-251, 48 h
  IC50: 5.13 µM
U-251; U-251, time 48 hrs
  GI50: 3.24 µM
  LC50 (concentration killing 50% of cells): 4.21 µM
  TGI: 14.8 µM
M14; M14, 48 h
  IC50: 3.8 µM
M14; M14, time 48 hrs
  GI50: 2.19 µM
  TGI: 5.13 µM
M14; M14, time 48 hrs, read-out: LC50 (the source's name)
  CC50: 4.56 µM
SK-MEL-5; SK-MEL-5, 48 h
  IC50: 6.03 µM
SK-MEL-5; SK-MEL-5, time 48 hrs
  GI50: 3.16 µM
  TGI: 13.8 µM
SK-MEL-5; SK-MEL-5, time 48 hrs, read-out: LC50 (the source's name)
  CC50: 4.33 µM
UACC-257; UACC-257, 48 h
  IC50: 37.2 µM
UACC-257; UACC-257, time 48 hrs
  GI50: 12.6 µM
  LC50 (50% lethal concentration): 4 µM
  TGI: 38.9 µM
UACC-62; UACC-62, 48 h
  IC50: 12.9 µM
UACC-62; UACC-62, time 48 hrs
  GI50: 5.01 µM
  LC50 (50% lethal concentration): 4.16 µM
  TGI: 21.9 µM
OVCAR-3; OVCAR-3, 48 h
  IC50: 4.07 µM
OVCAR-3; OVCAR-3, time 48 hrs
  GI50: 2.34 µM
  LC50: 4.71 µM
  TGI: 5.5 µM
NCI/ADR-RES; 48 h
  IC50: 3.8 µM
NCI/ADR-RES; time 48 hrs
  GI50: 2.09 µM
  TGI: 6.03 µM
NCI/ADR-RES; [5]
  CC50: 4 µM
SK-OV-3; SK-OV-3, 48 h
  IC50: 8.13 µM
SK-OV-3; SK-OV-3, time 48 hrs
  GI50: 3.39 µM
  TGI: 12.9 µM
SK-OV-3; SK-OV-3, time 48 hrs, read-out: LC50 (the source's name)
  CC50: 4.26 µM
HOP-62; HOP-62, 48 h
  IC50: 12.3 µM
HOP-62; HOP-62, time 48 hrs
  GI50: 4.47 µM
  TGI: 16.6 µM
NCI-H460; NCI-H460, 48 h
  IC50: 3.72 µM
NCI-H460; NCI-H460, time 48 hrs
  GI50: 3.24 µM
  TGI: 13.2 µM
NCI-H460; NCI-H460, time 48 hrs, read-out: LC50 (the source's name)
  CC50: 4.14 µM
786-0; 786-0, 48 h
  IC50: 9.55 µM
786-0; 786-0, time 48 hrs
  GI50: 5.13 µM
  TGI: 31.6 µM
CAKI-1; CAKI-1, 48 h
  IC50: 12 µM
CAKI-1; CAKI-1, time 48 hrs
  GI50: 3.31 µM
  TGI: 20.9 µM
CAKI-1; CAKI-1, time 48 hrs, read-out: LC50 (the source's name)
  CC50: 4.07 µM
RXF 393; RXF 393, 48 h
  IC50: 5.01 µM
RXF 393; RXF 393, time 48 hrs
  GI50: 1.78 µM
  TGI: 6.17 µM
RXF 393; RXF 393, time 48 hrs, read-out: LC50 (the source's name)
  CC50: 4.32 µM
SN12C; 48 h
  IC50: 7.59 µM
SN12C; time 48 hrs
  GI50: 4.27 µM
  TGI: 20 µM
SN12C; [5]
  CC50: 4.08 µM
PC-3; PC-3, 48 h
  IC50: 10 µM
PC-3; PC-3, time 48 hrs
  GI50: 3.47 µM
  LC50: 4.16 µM
  TGI: 18.2 µM
DU-145; DU-145, 48 h
  IC50: 4.68 µM
DU-145; DU-145, time 48 hrs
  GI50: 3.31 µM
  TGI: 11.2 µM
DU-145; DU-145, time 48 hrs, read-out: LC50 (the source's name)
  CC50: 4.41 µM
[1]
  GI50: 3.09 µM
Tubulin (Homo sapiens)
  inhibition: Active
[2]
  GI50: 3.8 µM
[3]
  GI50: 4.68 µM
[4]
  GI50: 3.39 µM
